Data as given in PubChem BioAssay (NCI).
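Five compound concentrations were applied to cells in 96-well plates for 48 hours; endpoints were derived by simple linear interpolation of the resulting dose-response curve. Abbreviation: GI50, concentration required for 50% inhibition of growth. TGI is the concentration that stops growth completely.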

Tests used:
Assay in all cases: DTP human tumour cell line panel, 48 h
SK-OV-3 ovarian = system: SK-OV-3 ovarian
NCI-H460 lung = system: NCI-H460 lung
K-562 leukemia = system: K-562 leukemia
HCT-15 colon = system: HCT-15 colon
M14 melanoma = system: M14 melanoma
RPMI-8226 leukemia = system: RPMI-8226 leukemia
SNB-75 CNS = system: SNB-75 CNS
CAKI-1 renal = system: CAKI-1 renal
HS 578T breast = system: HS 578T breast
NCI-H522 lung = system: NCI-H522 lung
SK-MEL-5 melanoma = system: SK-MEL-5 melanoma
HOP-92 NSCLC = system: HOP-92 NSCLC
IGROV1 ovarian = system: IGROV1 ovarian
MOLT-4 leukemia = system: MOLT-4 leukemia
SK-MEL-28 melanoma = system: SK-MEL-28 melanoma
COLO 205 colon = system: COLO 205 colon
SF-268 CNS = system: SF-268 CNS
UACC-257 melanoma = system: UACC-257 melanoma
HL-60(TB) leukemia = system: HL-60(TB) leukemia
A549 NSCLC = system: A549 NSCLC
CCRF-CEM leukemia = system: CCRF-CEM leukemia
HT29 colon = system: HT29 colon
A498 renal = system: A498 renal
DU-145 prostate = system: DU-145 prostate
HOP-62 NSCLC = system: HOP-62 NSCLC
U251 CNS = system: U251 CNS
PC-3 prostate = system: PC-3 prostate
MDA-MB-231 breast = system: MDA-MB-231 breast
SW-620 colon = system: SW-620 colon
OVCAR-8 ovarian = system: OVCAR-8 ovarian
MCF7 breast = system: MCF7 breast
UACC-62 melanoma = system: UACC-62 melanoma
786-0 renal = system: 786-0 renal
NCI-H23 lung = system: NCI-H23 lung
BT-549 breast = system: BT-549 breast
SNB-19 CNS = system: SNB-19 CNS
EKVX NSCLC = system: EKVX NSCLC
MDA-MB-435 = system: MDA-MB-435
UO-31 renal = system: UO-31 renal
OVCAR-4 ovarian = system: OVCAR-4 ovarian
HCC-2998 colon = system: HCC-2998 colon
SF-295 CNS = system: SF-295 CNS
OVCAR-5 ovarian = system: OVCAR-5 ovarian
SR leukemia = system: SR leukemia
HCT-116 colon = system: HCT-116 colon
SF-539 CNS = system: SF-539 CNS
NCI/ADR-RES ovarian = system: NCI/ADR-RES ovarian
SN12C renal = system: SN12C renal
TK-10 renal = system: TK-10 renal
SK-MEL-2 melanoma = system: SK-MEL-2 melanoma
ACHN renal = system: ACHN renal
NCI-H226 lung = system: NCI-H226 lung
MALME-3M melanoma = system: MALME-3M melanoma

`CC(=O)C1=C(C)N(C)C2(O)C=CC(=O)C3=C(O)c4ccccc4C(=O)C312` (stereo unspecified) was tested, and the GI50 (SK-OV-3 ovarian) was 6.9 µM, the TGI (SK-OV-3 ovarian) was 32.4 µM and the GI50 (NCI-H460 lung) was 10.6 µM. The TGI (NCI-H460 lung) was 42 µM, the GI50 (K-562 leukemia) was 3.14 µM and the TGI (K-562 leukemia) was > 100 µM. The GI50 (HCT-15 colon) was 5.41 µM, the TGI (HCT-15 colon) was 21.7 µM and the GI50 (M14 melanoma) was 2.81 µM. For the same compound, the TGI (M14 melanoma) was 7.87 µM, the GI50 (RPMI-8226 leukemia) was 3.02 µM and the TGI (RPMI-8226 leukemia) was 31.5 µM. It also gave a GI50 (SNB-75 CNS) of 19.9 µM, a TGI (SNB-75 CNS) of 43.8 µM and a GI50 (CAKI-1 renal) of 3.52 µM. The TGI (CAKI-1 renal) was 9.65 µM, the GI50 (HS 578T breast) was 7.23 µM and the TGI (HS 578T breast) was 40.5 µM. The GI50 (NCI-H522 lung) was 23.8 µM, the TGI (NCI-H522 lung) was > 100 µM and the GI50 (SK-MEL-5 melanoma) was 2.51 µM. For the same compound, the TGI (SK-MEL-5 melanoma) was 9.02 µM, the GI50 (HOP-92 NSCLC) was 2.61 µM and the TGI (HOP-92 NSCLC) was 8.48 µM. For the same compound, the GI50 (IGROV1 ovarian) was 23.5 µM, the TGI (IGROV1 ovarian) was > 100 µM and the GI50 (MOLT-4 leukemia) was 3.53 µM. For the same compound, the TGI (MOLT-4 leukemia) was > 100 µM, the GI50 (SK-MEL-28 melanoma) was 19.4 µM and the TGI (SK-MEL-28 melanoma) was 47.3 µM. For the same compound, the GI50 (COLO 205 colon) was 13.8 µM, the TGI (COLO 205 colon) was 38 µM and the GI50 (SF-268 CNS) was 9.29 µM. For the same compound, the TGI (SF-268 CNS) was 23.6 µM, the GI50 (UACC-257 melanoma) was 5.73 µM and the TGI (UACC-257 melanoma) was > 100 µM. The GI50 (HL-60(TB) leukemia) was > 100 µM, the TGI (HL-60(TB) leukemia) was > 100 µM and the GI50 (A549 NSCLC) was 23 µM. For the same compound, the TGI (A549 NSCLC) was > 100 µM, the GI50 (CCRF-CEM leukemia) was 1.92 µM and the TGI (CCRF-CEM leukemia) was > 100 µM. For the same compound, the GI50 (HT29 colon) was 24.1 µM, the TGI (HT29 colon) was > 100 µM and the GI50 (A498 renal) was 0.0524 µM. The TGI (A498 renal) was 15.2 µM, the GI50 (DU-145 prostate) was 5.27 µM and the TGI (DU-145 prostate) was 21.8 µM. It also gave a GI50 (HOP-62 NSCLC) of 5.16 µM, a TGI (HOP-62 NSCLC) of 18.4 µM and a GI50 (U251 CNS) of 14 µM. The TGI (U251 CNS) was 31.4 µM, the GI50 (PC-3 prostate) was 3.42 µM and the TGI (PC-3 prostate) was 15.9 µM. For the same compound, the GI50 (MDA-MB-231 breast) was 4.96 µM, the TGI (MDA-MB-231 breast) was 21.6 µM and the GI50 (SW-620 colon) was 4.41 µM. For the same compound, the TGI (SW-620 colon) was 33.5 µM, the GI50 (OVCAR-8 ovarian) was 24 µM and the TGI (OVCAR-8 ovarian) was > 100 µM. For the same compound, the GI50 (MCF7 breast) was 12.2 µM, the TGI (MCF7 breast) was 36.1 µM and the GI50 (UACC-62 melanoma) was 3.89 µM. It also gave a TGI (UACC-62 melanoma) of 14 µM, a GI50 (786-0 renal) of 2.59 µM and a TGI (786-0 renal) of 7.36 µM. It also gave a GI50 (NCI-H23 lung) of 5.21 µM, a TGI (NCI-H23 lung) of 46 µM and a GI50 (BT-549 breast) of 13.6 µM. It also gave a TGI (BT-549 breast) of 27.9 µM, a GI50 (SNB-19 CNS) of 2.18 µM and a TGI (SNB-19 CNS) of 27 µM. The GI50 (EKVX NSCLC) was 15.3 µM, the TGI (EKVX NSCLC) was 33.4 µM and the GI50 (MDA-MB-435) was 2.12 µM. The TGI (MDA-MB-435) was 3.89 µM, the GI50 (UO-31 renal) was 27 µM and the TGI (UO-31 renal) was > 100 µM. For the same compound, the GI50 (OVCAR-4 ovarian) was 17.1 µM, the TGI (OVCAR-4 ovarian) was 34.2 µM and the GI50 (HCC-2998 colon) was 13.8 µM. It also gave a TGI (HCC-2998 colon) of 61.8 µM, a GI50 (SF-295 CNS) of 5.03 µM and a TGI (SF-295 CNS) of 19.6 µM. For the same compound, the GI50 (OVCAR-5 ovarian) was 22.1 µM, the TGI (OVCAR-5 ovarian) was 66.1 µM and the GI50 (SR leukemia) was > 100 µM. The TGI (SR leukemia) was > 100 µM, the GI50 (HCT-116 colon) was 2.77 µM and the TGI (HCT-116 colon) was 7.09 µM. It also gave a GI50 (SF-539 CNS) of 2.76 µM, a TGI (SF-539 CNS) of 6.55 µM and a GI50 (NCI/ADR-RES ovarian) of 5.49 µM. The TGI (NCI/ADR-RES ovarian) was > 100 µM, the GI50 (SN12C renal) was 3.13 µM and the TGI (SN12C renal) was 8.81 µM. It also gave a GI50 (TK-10 renal) of 6.72 µM, a TGI (TK-10 renal) of 20.7 µM and a GI50 (SK-MEL-2 melanoma) of 30.6 µM. The TGI (SK-MEL-2 melanoma) was > 100 µM, the GI50 (ACHN renal) was 10.8 µM and the TGI (ACHN renal) was 28.8 µM. The GI50 (NCI-H226 lung) was 16 µM, the TGI (NCI-H226 lung) was 31.9 µM and the GI50 (MALME-3M melanoma) was 1.51 µM. The TGI (MALME-3M melanoma) was 4.01 µM.
